Data from ChEMBL document CHEMBL1201862, “PubChem BioAssay data set” (2004).
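Interpolation was linear, between the two tested concentrations surrounding the appropriate level; five concentrations were tested over 48 hours in 96-well plates. GI50: concentration for 50% inhibition of growth.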 The source made the active and inactive calls. Cut-off read from the data, not from the text of the source: active = GI50 up to about 1.1 µM and inactive = higher.

Key:
Experiment in all cases: growth of human tumour cells (NCI), 48 h
UACC-62 = tested on: UACC-62
OVCAR-8 = tested on: OVCAR-8
K562 = tested on: K562
NCI/ADR-RES = tested on: NCI/ADR-RES
SF-295 = tested on: SF-295
LOX IMVI = tested on: LOX IMVI
MOLT-4 = tested on: MOLT-4
BT-549 = tested on: BT-549
T47D = tested on: T47D
SN12C = tested on: SN12C
HOP-62 = tested on: HOP-62
SK-MEL-28 = tested on: SK-MEL-28
SR = tested on: SR
NCI-H460 = tested on: NCI-H460
Hs-578T = tested on: Hs-578T
A549 = tested on: A549
CCRF-CEM = tested on: CCRF-CEM
HL-60 = tested on: HL-60
NCI-H23 = tested on: NCI-H23
SK-MEL-5 = tested on: SK-MEL-5

Measured: GI50

NC(Cc1cc(Br)c(O)c(Br)c1)C(=O)O (stereo not given)
inactive: UACC-62 > 100 µM | OVCAR-8 > 100 µM | K562 > 100 µM | NCI/ADR-RES > 100 µM | SF-295 > 100 µM | LOX IMVI > 100 µM | MOLT-4 > 100 µM | BT-549 > 100 µM | T47D > 100 µM | SN12C > 100 µM | HOP-62 > 100 µM | SK-MEL-28 > 100 µM | SR > 100 µM | NCI-H460 > 100 µM | Hs-578T > 100 µM | A549 > 100 µM | CCRF-CEM > 100 µM | HL-60 > 100 µM | NCI-H23 > 100 µM | SK-MEL-5 > 100 µM

O=c1[nH]c2cc([N+](=O)[O-])c(Nc3c4ccccc4nc4ccccc34)c([N+](=O)[O-])c2[nH]1
inactive: UACC-62 1.6 µM | OVCAR-8 2.43 µM | K562 2.42 µM | NCI/ADR-RES 2.41 µM | SF-295 2.65 µM | LOX IMVI 2.37 µM | BT-549 6.53 µM | T47D 2.49 µM | SN12C 2.17 µM | HOP-62 2.67 µM | SK-MEL-28 3.27 µM | SR 1.74 µM | NCI-H460 2.36 µM | Hs-578T 7.18 µM | A549 2.69 µM | CCRF-CEM 4.42 µM | HL-60 3.1 µM | NCI-H23 3.49 µM | SK-MEL-5 2.45 µM
active: MOLT-4 0.938 µM

COC(=O)/C=C\C(C#N)(C#N)/N=C/c1sccc1C
inactive: UACC-62 6.62 µM | OVCAR-8 2.47 µM | K562 3.3 µM | NCI/ADR-RES 11.8 µM | SF-295 18.2 µM | LOX IMVI 1.3 µM | MOLT-4 1.2 µM | BT-549 3.15 µM | T47D 2.62 µM | SN12C 8.59 µM | HOP-62 14.7 µM | SK-MEL-28 4.88 µM | SR 2.36 µM | NCI-H460 16.4 µM | Hs-578T 7.78 µM | A549 15 µM | HL-60 1.88 µM | NCI-H23 7.03 µM | SK-MEL-5 1.55 µM
active: CCRF-CEM 1 µM

CC(=O)NNc1nc(C)c(C(/C=C/c2ccccc2O)=N/N=C(N)N)s1
inactive: UACC-62 > 100 µM | OVCAR-8 > 100 µM | K562 > 100 µM | NCI/ADR-RES > 100 µM | SF-295 > 100 µM | LOX IMVI > 100 µM | MOLT-4 > 100 µM | BT-549 > 100 µM | T47D > 100 µM | SN12C > 100 µM | HOP-62 > 100 µM | SK-MEL-28 > 100 µM | SR > 100 µM | NCI-H460 > 100 µM | Hs-578T > 100 µM | A549 > 100 µM | CCRF-CEM > 100 µM | HL-60 > 100 µM | NCI-H23 > 100 µM | SK-MEL-5 > 100 µM

CC(C)/C(Cl)=N\OC(=O)Nc1ccc(S(N)(=O)=O)cc1
inactive: UACC-62 17.9 µM | OVCAR-8 17.9 µM | K562 2.79 µM | NCI/ADR-RES 18.7 µM | SF-295 15.7 µM | LOX IMVI 2.89 µM | MOLT-4 2.32 µM | BT-549 2.75 µM | T47D 22.6 µM | SN12C 13.9 µM | HOP-62 > 42.6 µM | SK-MEL-28 16.2 µM | SR 2.08 µM | NCI-H460 20.5 µM | Hs-578T 25.2 µM | A549 20 µM | CCRF-CEM 1.75 µM | HL-60 1.89 µM | NCI-H23 19.2 µM | SK-MEL-5 15.9 µM

COc1cc(C)cc2c1C(=O)C(Br)=CC2=O
inactive: UACC-62 9.71 µM | OVCAR-8 6.34 µM | K562 1.93 µM | NCI/ADR-RES 27.3 µM | SF-295 16.2 µM | LOX IMVI 8.59 µM | MOLT-4 2.39 µM | BT-549 11.1 µM | T47D 2.21 µM | SN12C 15.7 µM | HOP-62 17.8 µM | SK-MEL-28 17.4 µM | SR 4.57 µM | NCI-H460 19.4 µM | Hs-578T 29.4 µM | A549 21.2 µM | HL-60 1.53 µM | NCI-H23 15.5 µM | SK-MEL-5 12.6 µM
active: CCRF-CEM 0.867 µM

O=c1c2ncn(COCCCl)c2n(-c2ccccc2)c(=S)n1-c1ccccc1
inactive: UACC-62 > 100 µM | OVCAR-8 > 100 µM | K562 > 100 µM | NCI/ADR-RES > 100 µM | SF-295 > 100 µM | LOX IMVI > 100 µM | MOLT-4 > 100 µM | BT-549 > 100 µM | T47D > 100 µM | SN12C > 100 µM | HOP-62 > 100 µM | SK-MEL-28 > 100 µM | SR > 100 µM | NCI-H460 > 100 µM | Hs-578T > 100 µM | A549 > 100 µM | CCRF-CEM > 100 µM | HL-60 > 100 µM | NCI-H23 > 100 µM | SK-MEL-5 > 100 µM
